Assay results reported in patent US8778899B2, “Methods of inducing regulated pancreatic hormone production in non-pancreatic islet tissues” (priority 1999, dated 2014).

How the values were obtained:
adult human liver cells = assay: Glucose challenge assay; type: cell-based; conditions: 0-25 mM, 2 hours
Method: Adult liver cells were treated with Ad-CMV-PDX-1 and growth factors for 5 days. The cells were plated in 6-well plates at 10^5 cells per well.
For time course analysis the cells were preincubated for 2 hours in Krebs-Ringer buffer (KRB) containing 0.1% BSA, followed by incubation for the indicated period in media containing 2 mM or 25 mM glucose. At each time point media samples were analyzed for insulin (Ultra Sensitive Human Insulin RIA kit—Linco Research) and C-peptide secretion (Human C-Peptide RIA kit—Linco Research).
Glucose dose response; Cells were preincubated for 2 hours with KRB containing 0.1% BSA, washed and challenged thereafter with increasing concentrations of D-Glucose or 2-deoxy-Glucose (0-25 mM) for 2 hours. At the end of the incubation period at 25 mM glucose, the cells were washed with KRB and incubated for additional 2 hours in 2 mM glucose containing media.

human liver cells = assay: Quantitative real-time RT-PCR gene expression in human liver cells; type: cell-based; conditions: without PDX-1
Method: Liver cells were cultured in Dulbecco's minimal essential medium (1 gr/L glucose) with or without growth factors as indicated separately (EGF 20 ng/ml, Cytolab Ltd.; Nicotinamide 10 mM, Sigma), and were infected by recombinant adenoviruses (500 moi) for 5 days. The recombinant adenoviruses used in this study: Ad-RIP-GFP-CMV-PDX-1, Ad-CMV-PDX-1, Ad-CMV-hIns^40, Ad-CMV-GFP (Clontech, BD Biosciences).
Alternatively, quantitative real-time RT-PCR, was performed using ABI Prism 7000 sequence Detection system (Applied Biosystems).
Amplification conditions included initiation at 50° C. for 2 minutes, denaturation at 95° C. for 10 minutes, followed by 40 cycles, each cycle included denaturation at 95° C. for 15 seconds and annealing at 60° C. for 1 minute, using the TaqMan PCR Master Mix (Applied Biosystems). Relative quantitative analysis was according to ABI prism 7000 SDS software, using the 2^(−ΔCt) equation. The mRNA levels were corrected for human β-actin mRNA.

Compound	C-peptide secretion in transdifferentiated liver cells (adult human liver cells)	PDX-1 independent effect on pancreatic gene expression (human liver cells)
O=CC[C@@H](O)[C@H](O)[C@H](O)CO [2-DOG, 2-deoxy-glucose]	did not trigger C-peptide secretion	
NC(=O)c1cccnc1 [nicotinamide]		Neither nicotinamide nor EGF alone or their combination exhibited PDX-1 independent effect
EGF: epidermal growth factor, soluble factor added to liver cell cultures (NSDSECPLSHDGYCLHDGVCMYIEALDKYACNCVVGYIGERCQYRDLKWWELR; UniProt P01133 971-1023, looked up)		Neither nicotinamide nor EGF alone or their combination exhibited PDX-1 independent effect
